Results from ChEMBL document CHEMBL2331210, “New 2-benzylsulfanyl-nicotinic acid based 1,3,4-oxadiazoles: their synthesis and biological evaluation” (2013).
In brackets after ≈: the same amount, converted by molar mass.

How the values were obtained:
Format in all cases: functional
Aspergillus niger = experiment: Antimicrobial activity against Aspergillus niger MTCC 282 assessed as growth inhibition measured after overnight incubation by broth dilution method
Escherichia coli = experiment: Antimicrobial activity against Escherichia coli MTCC 443 assessed as growth inhibition measured after overnight incubation by broth dilution method
Candida albicans = experiment: Antimicrobial activity against Candida albicans MTCC 227 assessed as growth inhibition measured after overnight incubation by broth dilution method
Pseudomonas aeruginosa = experiment: Antimicrobial activity against Pseudomonas aeruginosa MTCC 2488 assessed as growth inhibition measured after overnight incubation by broth dilution method
Staphylococcus aureus = experiment: Antimicrobial activity against Staphylococcus aureus MTCC 96 assessed as growth inhibition measured after overnight incubation by broth dilution method
Streptococcus pyogenes = experiment: Antimicrobial activity against Streptococcus pyogenes MTCC 442 assessed as growth inhibition measured after overnight incubation by broth dilution method
Aspergillus clavatus = experiment: Antimicrobial activity against Aspergillus clavatus MTCC 1323 assessed as growth inhibition measured after overnight incubation by broth dilution method
[1] = test system: Mycobacterium tuberculosis; experiment: Antitubercular activity against Mycobacterium tuberculosis H37Rv assessed as growth inhibition after 12 to 28 days by L.J. agar MIC method; conditions: for MIC: Mycobacterium tuberculosis, H37Rv

Row | SMILES | MIC (Aspergillus niger) | MIC (Escherichia coli) | MIC (Candida albicans) | MIC (Pseudomonas aeruginosa) | MIC (Staphylococcus aureus) | MIC (Streptococcus pyogenes) | MIC (Aspergillus clavatus) | growth inhibition (GI) [1] | MIC [1]
1 | N#CSc1ccc2nc(NC(=O)CSc3nnc(-c4cccnc4SCc4ccccc4)o3)sc2c1 | 100 µg/mL (≈ 182 µM) | 250 µg/mL (≈ 456 µM) | 500 µg/mL (≈ 911 µM) | 62.5 µg/mL (≈ 114 µM) | 250 µg/mL (≈ 456 µM) | 12.5 µg/mL (≈ 22.8 µM) | 250 µg/mL (≈ 456 µM) | 99% | 50 µg/mL (≈ 91.1 µM)
2 | CCOC(=O)CSc1nnc(-c2cccnc2SCc2ccccc2)o1 | 1000 µg/mL (≈ 2580 µM) | 500 µg/mL (≈ 1290 µM) | 1000 µg/mL (≈ 2580 µM) | 200 µg/mL (≈ 516 µM) | 500 µg/mL (≈ 1290 µM) | 125 µg/mL (≈ 323 µM) | 1000 µg/mL (≈ 2580 µM) | 98% | 100 µg/mL (≈ 258 µM)
